According to PMC6264224, “A Practical Approach to New (5Z) 2-Alkylthio-5-arylmethylene-1-methyl-1,5-dihydro-4H-imidazol-4-one Derivatives” (Molecules, 2011):

melting point: 203 to 205 °C
SMILES: COc1ccc(/C=C2/C(=O)NC(=S)N2C)cc1O [4d, (5Z)-5-(3-Hydroxy-4-methoxybenzylidene)-1-methyl-2-thioxoimidazolidin-4-one]
